Laboratory results published in patent EP1613294B1, “PEPTIDES AND DERIVATIVES THEREOF AS INHIBITORS OF OXIDATIVE DAMAGE OF THE SKIN” (Bottega Verde S.r.l., priority 2003, dated 2004).
Peptide text beside a SMILES is read from it.

Legend:
[1] = HNE quenching activity in homogeneous phase (HNE consumption by HPLC); format: biochemical; conditions: 200 µM HNE, 37°C, average ± S.D of 4 determinations; for RESIDUAL HNE (%) 1 hr of incubation: phosphate buffer 10 mM pH 7.4, 1 hr; for RESIDUAL HNE (%) 24 hrs of incubation: phosphate buffer 10 mM pH 7.4, 24 hrs
Text: 4-hydroxy-trans-nonenal (HNE) was used throughout the study, as the prototype of α,β-unsaturated aldehydes since it represents the main oxidative degradation product of ω-6 polyunsaturated fatty acids, such as arachidonic and linoleic acids, and it is formed in large amount in the skin under different patho-physiological conditions, such as intrinsic and photo-induced skin aging [Tanaka N, Arch Dermatol Res, 293, 363-367, 2001].
A homogeneous phase model was first used to evaluate the ability of H-His-Tyr-OH and H-Tyr-His-OH to react and deactivate the cytotoxic agent HNE (quenching activity). In particular, the di-peptides were incubated at 37°C in a phosphate buffer, 10 mM pH 7.4, in the presence of 200 µM HNE. HNE consumption was determined after 1 hour and 24 hours of incubation by HPLC analysis, under the following experimental conditions: HP1050 (Hewlett Packard, Milano, Italy) equipped with a quaternary pump, self-sampling, on-line degasser, UV/VIS photodiode detector. The separations were performed by means of a Supelco LC18 column (25 cm x 4.6 mm i.d.; particle size 5 µm) and an isocratic elution system: 60% of phase A (H2O/CH3CN/HCOOH 90/1.0/0.] v/v/v) and 40% of phase B (H2O/CH3CN 10/90 v/v/v).
The values are expressed as the average ± S.D of 4 determinations.

[2] = Antioxidant activity, fluorimetric assay of R-Phicoerytrine (RPE) oxidation by AAPH-generated peroxyl radicals; format: biochemical; conditions: substance at 25 µM; average ± S.D of 4 determination
Method: The amount of RPE oxidation is determined by fluorimetric analysis and the results are expressed as Trolox equivalents (reference compound).
(the hydrophilic analogue of vitamin E).
The values are the average ± S.D of 4 determination

[3] = tested on: keratinocytes (NCTC 2544 human cell line); experiment: Cytoprotection of keratinocytes exposed to UVB and HNE (morphology, cell viability by calcein assay); format: cell-based; conditions: for protective effect (morphological analyses and recovery in cell viability): added to incubation medium concomitant to HNE and UVB exposure, result in words
Method: The experimental model involves the exposure of the cellular mono-layer to the minimal UVB erythematal dose, MED=50 mJ/cm^2, (Vilber Lourmat VLX-3W radiometer equipped with a UVB probe at 312 nm)and, 4 hours of post-incubation, to the HNE insult (70 nmoles/mg protein).
The combination of physical (UVB) and chemical (HNE) stress is used to simulate the conditions of cellular damage of the skin during the cutaneous intrinsic and photo-induced aging process.

[4] = tested on: human kcratinocytcs cell line (NCTC 2544 human cell line); experiment: Antioxidant cell protection of keratinocytes against AAPH-induced oxidative damage (MTT, morphology, lipid peroxidation with BODIPY 581/591); format: cell-based; conditions: 6 hours exposure to 40 mM AAPH
Method: The H-His-Tyr-OH and H-Tyr-His-OH antioxidant activity was subsequently devaluated in a cellular model using human kcratinocytcs cell line (NCTC 2544 human cell line, Flow Laboratories, Irvine, UK), subjected to oxidative damage induced by a flux of peroxyl radicals generated by the radical initiator 2,2'-azobis([…]) dihydrochloride (AAPH). The following parameters were evaluated as markers of cellular damage: mitochondrial functionality as an index of cell viability (MTT assay), cellular morphology (phase contrast microscopic examinations), and lipid peroxidation, using 4,4-difluoro-5-(4-phenyl-1,3-butadienyl)-4-bora-3a,4a-diazo-s-indacene-3-undecanoic acid(BODIPY 581/591) as membrane fluorescent probe [Pap et al, FEBS Lett. 453:278-282, 1999]. A dramatic cytotoxic effect was observed after 6 hours exposure to 40 mM AAPH(fig.5).
The addition of H-His-Tyr-OH to the incubation medium causes a significant and dose-dependent cell protection, which is significant for all the parameters considered, already at 0.5 mM, with a total protection at 10 mM (fig. 5).

[5] = Copper (II) chelation by spectrophotometric analysis; format: physicochemical; conditions: phosphate buffer (1 mM), 37°C, 1 mM copper sulphate (1:1 molar ratio); free copper (II) band at 800 nm disappears
Method: For this purpose, first we evaluated the ability of H-His-Tyr-OH and H-Tyr-His-OH to chelate copper (II) by spectro-photometric analysis. The peptides are dissolved in phosphate buffer (1 mM) and incubated at 37°C with 1 mM copper sulphate (1:1 molar ratio).

SMILES	RESIDUAL HNE (%) 1 hr of incubation [1] [%]	RESIDUAL HNE (%) 24 hrs of incubation [1] [%]	TROLOX equivalent [2] [µM]	EC100 ([3]; Homo sapiens, NCTC-2544, light or radiation study, UVB 50 mJ/cm^2 + HNE 70 nmoles/mg protein, determined 6 hours after the addition of HNE, read-out: concentration at which cells are completely protected (morphological analysis)) [µM]	minimal effective concentration ([3]; Homo sapiens, NCTC-2544, light or radiation study, UVB 50 mJ/cm^2 + HNE 70 nmoles/mg protein, determined 6 hours after the addition of HNE, read-out: concentration at which the cytoprotective activity is already significant) [µM]	protective effect (morphological analyses and recovery in cell viability) [3]	minimal effective concentration ([4]; mitochondrial functionality, morphology, lipid peroxidation, read-out: concentration at which cell protection is already significant for all the parameters considered) [µM]	EC100 ([4]; read-out: concentration giving total protection) [µM]	λmax of the absorption band of the peptide-copper(II) complex [5] [nm]
N=C(N)NN [Amino guanidine, reference compound]	95.31 ± 0.08	72.04 ± 3.97							
NCCC(=O)N[C@@H](Cc1cnc[nH]1)C(=O)O [Carnosine, reference compound]			4.94 ± 0.3						
NC(Cc1cnc[nH]1)C(=O)NC(Cc1ccc(O)cc1)C(=O)O (stereo not drawn) [H-His-Tyr-OH] (H-His-Tyr-OH; configuration not given here)	80.16 ± 7.57	15.41 ± 0.49	16.90 ± 0.54	20000	2000	dose-dependent protective effect	500	10000	650
NC(Cc1ccc(O)cc1)C(=O)NC(Cc1cnc[nH]1)C(=O)O (stereo not drawn) [H-Tyr-His-OH] (H-Tyr-His-OH; configuration not given here)	85.31 ± 6.29	20.02 ± 4.09	17.28 ± 0.89			dose-dependent protective effect			600
Cc1c(C)c2c(c(C)c1O)CCC(C)(C(=O)O)O2 (stereo not drawn) [Trolox, reference compound]			25						
